# Experimental data as given in US20260041679A1, “METHOD OF TREATING HYPERTENSION WITH THE ALDOSTERONE SYNTHASE INHIBITOR BAXDROSTAT” (CINCOR PHARMA, INC., priority 2022, published 2026).
# Where two headings read alike, the source gives them in different places.
# Experiments:
# [1] = Study 121: adverse events, safety population
# From the text: In this study, adverse events of special interest (AESIs) were events of hypotension, low sodium levels or elevated potassium levels that required clinical intervention.
# [2] = Plasma PK of baxdrostat and baxdrostat-M in the metformin crossover study (Example 6A); format: in vivo, human; conditions: single 10-mg dose of baxdrostat
# Procedure: This study was designed as a phase 1, randomized, open-label, 2-period, crossover trial. Each subject participated in a screening period of up to 26 days followed by 2 inpatient treatment periods and a follow-up phone call. […] Plasma samples were extracted by protein precipitation with methanol, followed by analysis by LC-MS/MS with ESI(+) and MRM. Reversed-phase chromatographic separation with a mobile phase gradient of 20% to 90% was utilized, and total run time was approximately 5 minutes. […] PK parameters were calculated using noncompartmental methods with SAS software, version 9.4 (SAS Institute). […] Tmax; […] AUC0-t; AUC0-inf, AUC0-inf extrapolated; λz; and t1/2. Plasma AUC0-72 was assessed only for baxdrostat and baxdrostat-M. […] Urine PK parameters included Ae, renal clearance (calculated as Ae/AUC), and the fraction of dose excreted renally.
# [3] = Multiple ascending dose study, safety (Example 2); format: in vivo, human; conditions: 0.5 to 5.0 mg once daily, 10 days
# Procedure: This randomized, double-blind, placebo-controlled phase 1 study evaluated the safety, pharmacokinetics, and pharmacodynamics of multiple ascending doses of baxdrostat in healthy volunteers. Fifty-six subjects were randomized to receive oral baxdrostat (0.5, 1.5, 2.5, or 5.0 mg) or placebo once daily for ten days and were placed on either a low salt or normal salt diet for the duration of the study. In particular, subjects were randomized into 5 cohorts to receive baxdrostat or placebo once daily for 10 days. Cohorts 1 and 2 were placed on a low salt diet to stimulate aldosterone production and were administered 2.5 or 5.0 mg oral baxdrostat, respectively. Cohorts 1 and 2 also underwent an adrenocorticotropic hormone (ACTH) challenge to increase aldosterone and cortisol levels to evaluate the specificity of baxdrostat for targeting aldosterone synthase. Cohorts 3, 4, and 5 were placed on a normal salt diet and were administered 1.5, 2.5, or 0.5 mg oral baxdrostat, respectively. Blood samples were collected prior to and after dosing on days 1 and 10 for measurement of plasma baxdrostat concentrations to characterize single-dose and steady-state pharmacokinetics. Pharmacodynamic measurements included plasma aldosterone, cortisol, and electrolytes. Safety assessments included physical examination, electrocardiograms, orthostatic vital signs, and clinical laboratory evaluations.
# aldosterone synthase = target: T1, aldosterone synthase (Homo sapiens, UniProt P19099); assay: Study 121: pharmacodynamics, serum and 24-hour urine aldosterone, plasma renin activity, serum cortisol; format: in vivo
# T1 construct: Pharmacodynamic measurements included plasma aldosterone, cortisol, and electrolytes; endogenous in cells; host or cells: human subjects in vivo (healthy volunteers; resistant hypertension patients)
# T1 sequence (P19099 25-503): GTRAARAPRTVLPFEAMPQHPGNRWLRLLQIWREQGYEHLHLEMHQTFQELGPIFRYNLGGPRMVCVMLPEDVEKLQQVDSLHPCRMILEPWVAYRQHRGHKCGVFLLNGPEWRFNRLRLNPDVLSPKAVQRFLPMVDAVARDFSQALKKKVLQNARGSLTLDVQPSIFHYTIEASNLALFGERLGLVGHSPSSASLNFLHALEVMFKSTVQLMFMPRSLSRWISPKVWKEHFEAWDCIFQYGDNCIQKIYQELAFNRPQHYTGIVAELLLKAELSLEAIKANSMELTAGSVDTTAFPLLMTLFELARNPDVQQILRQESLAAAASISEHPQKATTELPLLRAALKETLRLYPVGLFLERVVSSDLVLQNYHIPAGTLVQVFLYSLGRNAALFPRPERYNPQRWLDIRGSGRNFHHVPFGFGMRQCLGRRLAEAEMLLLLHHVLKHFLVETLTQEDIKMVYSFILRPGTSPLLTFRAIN
# From the text: Blood and urine samples were collected for determination of the pharmacodynamic parameters related to baxdrostat mechanism of aldosterone suppression. Serum concentrations of aldosterone, aldosterone excreted in 24-hour urine collections, plasma renin activity (PRA) and serum cortisol are summarized by dose and by study day as shown in FIGS. 3A-3D. […] These hormonal data provide strong biochemical evidence to support the mechanism by which baxdrostat's inhibition of aldosterone synthesis produces a significant impact on blood pressure levels without lowering serum cortisol levels.
# [4] = Single ascending dose study, pharmacokinetics (Example 1); format: in vivo
# Procedure: Eighty-eight healthy male volunteers completed the first-in-human study of baxdrostat. In part 1 of the trial, subjects received a single oral dose of baxdrostat ranging from 1 to 360 mg in order to evaluate safety, tolerability, PK, and pharmacodynamics (PD). Part 2 evaluated the PK of a single 3 mg intravenous dose of baxdrostat.
smiles,measurement,setting,value
"CCC(=O)N[C@@H]1CCCc2c(-c3ccc4c(c3)CCC(=O)N4C)cncc21 [baxdrostat, (R)—N-(4-(1-methyl-2-oxo-1,2,3,4-tetrahydroquinolin-6-yl)-5,6,7,8-tetrahydroisoquinolin-8-yl) propionamide]","TESAE, Number of Subjects (Number of Events)",[1]; 0.5 mg,0 (0) subjects (events)
same,TESAE: General disorders and administration site conditions,[1]; 0.5 mg,0 subjects (events)
same,TESAE: Infections and infestations,[1]; 0.5 mg,0 subjects (events)
same,TESAE: Metabolism and nutrition disorders,[1]; 0.5 mg,0 subjects (events)
same,TESAE: Musculoskeletal and connective tissue disorders,[1]; 0.5 mg,0 subjects (events)
same,TESAE: Nervous system disorders,[1]; 0.5 mg,0 subjects (events)
same,TESAE: Renal and urinary disorders,[1]; 0.5 mg,0 subjects (events)
same,"TESAE: Respiratory, thoracic and mediastinal disorders",[1]; 0.5 mg,0 subjects (events)
same,"adverse events of special interest (AESIs), patients per arm",[1]; 0.5 mg,1
same,percentage of patients who experienced TEAEs,[1]; 0.5 mg,34.8%
same,"TESAE, Number of Subjects (Number of Events)",[1]; 1 mg,2 (3) subjects (events)
same,TESAE: Infections and infestations,[1]; 1 mg,1 (1) subjects (events)
same,TESAE: Intervertebral disc degeneration,[1]; 1 mg,1 (1) subjects (events)
same,TESAE: Musculoskeletal and connective tissue disorders,[1]; 1 mg,1 (1) subjects (events)
same,TESAE: Nephrolithiasis,[1]; 1 mg,1 (1) subjects (events)
same,TESAE: Pyelonephritis,[1]; 1 mg,1 (1) subjects (events)
same,TESAE: Renal and urinary disorders,[1]; 1 mg,1 (1) subjects (events)
same,percentage of patients who experienced TEAEs,[1]; 1 mg,52.2%
same,"adverse events of special interest (AESIs), patients per arm",[1]; 1 mg arm,5
same,"TESAE, Number of Subjects (Number of Events)",[1]; 2 mg,6 (12) subjects (events)
same,TESAE: Acute kidney injury,[1]; 2 mg,1 (1) subjects (events)
same,TESAE: Acute respiratory failure,[1]; 2 mg,1 (1) subjects (events)
same,TESAE: Arthralgia,[1]; 2 mg,1 (1) subjects (events)
same,TESAE: Cellulitis,[1]; 2 mg,1 (1) subjects (events)
same,TESAE: Dehydration,[1]; 2 mg,1 (1) subjects (events)
same,TESAE: Dizziness,[1]; 2 mg,1 (1) subjects (events)
same,TESAE: Hyperglycaemia,[1]; 2 mg,1 (1) subjects (events)
same,TESAE: Hyperkalemia,[1]; 2 mg,1 (1) subjects (events)
same,TESAE: Hyponatraemia,[1]; 2 mg,1 (1) subjects (events)
same,TESAE: Infections and infestations,[1]; 2 mg,2 (2) subjects (events)
same,TESAE: Metabolism and nutrition disorders,[1]; 2 mg,1 (4) subjects (events)
same,TESAE: Musculoskeletal and connective tissue disorders,[1]; 2 mg,1 (1) subjects (events)
same,TESAE: Nervous system disorders,[1]; 2 mg,2 (2) subjects (events)
same,TESAE: Renal and urinary disorders,[1]; 2 mg,1 (1) subjects (events)
same,TESAE: Respiratory failure,[1]; 2 mg,1 (1) subjects (events)
same,"TESAE: Respiratory, thoracic and mediastinal disorders",[1]; 2 mg,2 (2) subjects (events)
same,TESAE: Syncope,[1]; 2 mg,1 (1) subjects (events)
same,TESAE: Urinary tract infection,[1]; 2 mg,1 (1) subjects (events)
same,percentage of patients who experienced TEAEs,[1]; 2 mg,47.8%
same,"adverse events of special interest (AESIs), patients per arm",[1]; 2 mg arm,2
same,adrenal insufficiency,[1]; Study 121,no reported cases of adrenal insufficiency
same,deaths and relatedness of SAEs,[1]; Study 121,no deaths in the study and all SAEs were assessed by the investigators to be unrelated to baxdrostat
same,tolerability,[1]; once daily for 12 weeks,well tolerated
same,AUC% extrapolated,[2]; human,8.36%
same,AUC(0-t),"[2]; human, read-out: AUC0-24, Mean",1660 ng·h/mL
same,AUC(0-t),"[2]; human, read-out: AUC0-72, GM",2790 ng·h/mL
same,AUC(0-t),"[2]; human, read-out: AUC0-72, Mean",2870 ng·h/mL
same,AUC(0-inf),"[2]; human, read-out: AUC0-inf, GM",2920 ng·h/mL
same,AUC(0-inf),"[2]; human, read-out: AUC0-inf, Mean",3030 ng·h/mL
same,Cmax,"[2]; human, read-out: Cmax, GM",117 ng/mL
same,Cmax,"[2]; human, read-out: Cmax, Mean",119 ng/mL
same,Tmax,"[2]; human, read-out: Tmax, GM",1.54 h
same,Tmax,"[2]; human, read-out: Tmax, Mean",1.68 h
same,"AUC0-24, GM",[2],1637.461 ng·h/mL
same,"λz, GM",[2],0.032 h⁻¹
same,"λz, Mean",[2],0.033 h⁻¹
same,deaths or serious adverse events,[3],no deaths or serious adverse events
same,severity of treatment-emergent adverse events,[3],mild in severity
same,urinary aldosterone excretion,aldosterone synthase; 24-hour urine,significantly reduced urinary aldosterone excretion
same,"suppression of aldosterone and augmentation of renin activity, male vs female patients",aldosterone synthase; in vivo,comparable between male and female patients
same,plasma renin activity (PRA),aldosterone synthase; rHTN patients,increased PRA several-fold
same,total serum cortisol,aldosterone synthase; rHTN patients,no reduction in total serum cortisol
same,half-life,"[4]; human, plasma, oral, single dose, healthy male volunteers",29 h
same,plasma levels of baxdrostat vs dose,[4]; single oral dose 1 to 360 mg,increased in a dose-proportional manner
